The assay deals with human neutrophilic leukocytes. As to the kind of experiment: Inhibition of superoxide radical (O2-) generation in FMLP-stimulated human neutrophilic leukocytes (ferricytochrome C method). It counts as cell-based. The source says: (1) Activity for inhibiting the generation of superoxide radical (O2^−) in human neutrophilic leukocytes
That is, a whole blood obtained from a healthy adult and treated by anticoagulation method was subjected to a dextranhypotonic treatment to obtain leukocyte cells. The leukocyte cells were then subjected to a density gradient ultracentrifugation by Ficoll-Paque to obtain a neutrophilic leukocyte fraction.
O2^− generation was examined by the ferricytochrome C method in accordance with the method of B. N. Cronstein et al. [Journal of Experimental Medicine, vol. […] Each test compound was dissolved in dimethyl sulfoxide (DMSO); the solution was added to neutrophilic leukocytes before the addition of FMLP; then, the neutrophilic leukocytes were pre-incubated at 37° C.

The mark [1] stands for this setting: Homo sapiens, Leukocyte, pH 7.4, Table 15, O2- generation, 3x10^-7 M FMLP, cytochalasin B, 37° C., pH 7.4.
Where [2] appears, read: Table 15, O2- generation, 3x10^-7 M FMLP, cytochalasin B, 37° C., pH 7.4.
The mark [3] stands for this setting: Homo sapiens, Leukocyte, Table 16, comparative test present compounds vs prior art compounds, NE = not effective.

Molecules are shown by their SMILES. Structures can show the parent of a compound that is named as a salt.

For orientation: IC50 means the concentration at which inhibition is half-maximal. Consider `CCOc1ccc(-c2nc(-c3ccc(C(=O)O)[nH]3)cs2)cc1OCC` [compound 119, 2-(3,4-Diethoxyphenyl)-4-(2-carboxy-5-pyrrolyl)-thiazole], for which the IC50 under setting [1] was determined as 24 nM.
The same measure, in the same setting: to `COc1ccc(C(=O)c2nc(-c3ccc4c(c3)CCC(=O)N4)cs2)cc1OC` [compound 58, 2-(3,4-Dimethoxybenzoyl)-4-(3,4-dihydrocarbostyril-6-yl)thiazole] belongs 1000 nM; to `COc1ccc(-c2nc(-c3c(O)cc(O)cc3O)cs2)cc1OC` [compound 70, 4-(2,4,6-Trihydroxyphenyl)-2-(3,4-dimethoxyphenyl) thiazole], 200 nM; to `CCCOc1cc(-c2nc(-c3ccc4c(c3)CCC(=O)N4)cs2)ccc1OC` [compound 68, 4-(3,4-Dihydrocarbostyril-6-yl)-2-(4-methoxy-3-propoxy-phenyl)thiazole], 80 nM.
Under setting [1], `CCCCOC(=O)c1cc(-c2csc(-c3ccc(OCC)c(OCC)c3)n2)ccc1OCCCC` [compound 136, 2-(3,4-Diethoxyphenyl)-4-(3-n-butoxycarbonyl-4-n-butoxyphenyl)thiazole] returned an IC50 of 130 nM.
On to `CCOc1ccc(-c2nc(-c3cc(C(=O)OC)cc([N+](=O)[O-])c3O)cs2)cc1OCC` [compound 101, 4-(3-Methoxycarbonyl-5-nitro-6-hydroxyphenyl)-2-(3,4-diethoxyphenyl)thiazole], for which, under setting [1], 10 nM corresponded to half-maximal inhibition (IC50).
Still for that read-out and setting: as for `CCOC(=O)c1csc(-c2csc(-c3ccc(OCC)c(OCC)c3)n2)n1` [compound 131, 2-(3,4-Diethoxyphenyl)-4-(4-ethoxycarbonyl-2-thiazolyl)thiazole], the figure is 190 nM; as for `C=C(C)Cc1cc(-c2csc(-c3ccc(OCC)c(OCC)c3)n2)cc(C(=O)O)c1O` [compound 84, 4-{3-Carboxy-4-hydroxy-5-(2-methyl-2-propenyl)-phenyl}-2-(3,4-diethoxyphenyl)thiazole], 20 nM; as for `CCOc1ccc(-c2nc(-c3cnc(C)c(C(=O)O)c3)cs2)cc1OCC` [compound 141, 2-(3,4-Diethoxyphenyl)-4-(2-methyl-3-carboxy-5-pyridyl)thiazole], 94 nM.
Turning to `CCOc1ccc(-c2nc(-c3cccc(CO)n3)cs2)cc1OCC` [compound 127], the IC50 under setting [2] was determined as 20 nM.
Under setting [2], `CCOc1ccc(-c2nc(-c3ccc(OC)c(C(=O)O)c3)cs2)cc1OCC` [compound 125] showed an IC50 of 190 nM.
Consider `CCOc1ccc(-c2nc(-c3cc(CC(C)C)c(O)c(C(=O)O)c3)cs2)cc1OCC` [compound 93, 4-(3-Carboxy-4-hydroxy-5-isobutylphenyl)-2-(3,4-diethoxyphenyl)thiazole], for which half-maximal inhibition under setting [1] (IC50) required 12 nM.
Compound `COC(=O)C1OC(Oc2ccc(-c3csc(-c4ccc(OC)c(OC)c4)n3)cc2)C(O)C(O)C1O` [compound 77, Methyl 4-[2-(3,4-dimethoxyphenyl)thiazole-4-yl]phenyl-β-D-glucopyranosidouronate] had a concentration for half-maximal inhibition (IC50) under setting [2] of 800 nM.
Take `CCOc1ccc(-c2nc(-c3ccc(N(C)C)c(C(=O)O)c3)cs2)cc1OCC` [compound 146, 2-(3,4-Diethoxyphenyl)-4-(3-carboxy-4-dimethylaminophenyl)thiazole]: half-maximal inhibition under setting [1] (IC50) was put at 110 nM.
For the compound `COc1ccc(-c2nc(-c3ccc4[nH]c(=O)c(=O)[nH]c4c3)cs2)cc1OC` [compound 57, 2-(3,4-Dimethoxyphenyl)-4-(2,3-dioxo-1,2,3,4-tetrahydro-quinoxalin-6-yl)thiazole], 300 nM corresponded to half-maximal inhibition under setting [1] (IC50).
`CCOc1ccc(-c2nc(-c3ccc(C(=O)O)o3)cs2)cc1OCC` [compound 122, 2-(3,4-Diethoxyphenyl)-4-(2-carboxy-5-furyl)-thiazole] yielded an IC50 under setting [1] of 19 nM.
Under setting [1], `CCCc1cc(C(=O)O)cc(-c2csc(-c3ccc(OCC)c(OCC)c3)n2)c1O` [compound 114, 4-(2-Hydroxy-3-propyl-5-carboxyphenyl)-2-(3,4-diethoxy-phenyl)thiazole] returned an IC50 of 100 nM.
Take `CCOc1ccc(-c2nc(-c3ccccc3)cs2)cc1OCC` [compound 116, 2-(3,4-Diethoxyphenyl)-4-phenylthiazole]: under setting [1], 370 nM corresponded to half-maximal inhibition (IC50).
The same measure, in the same setting: as for `CCOc1ccc(-c2nc(-c3ccc(O)c(NC(C)=O)c3)cs2)cc1OCC` [compound 65, 4-(3-Acetylamino-4-hydroxyphenyl)-2-(3,4-diethoxyphenyl)thiazole], the figure is 60 nM.
As to `CCOc1ccc(-c2nc(-c3cc(O)cc(O)c3)cs2)cc1OCC` [compound 61, 4-(3,5-Dihydroxyphenyl)-2-(3,4-diethoxyphenyl)-thiazole], the midpoint of inhibition under setting [1], the IC50, lay at 3 nM.
On to `CCOc1ccc(-c2nc(-c3cc(C(=O)O)c(O)cc3O)cs2)cc1OCC` [compound 100, 4-(3-Carboxy-4,6-dihydroxyphenyl)-2-(3,4-diethoxyphenyl)thiazole], for which the IC50 under setting [1] is 48 nM.
`CCOc1ccc(-c2nc(-c3ccc(O)c(C(=O)OCCN(C)C)c3)cs2)cc1OCC` [compound 118, 2-(3,4-Diethoxyphenyl)-4-[4-hydroxy-3-(2-dimethylaminoethoxycarbonyl)phenyl]thiazole trihydrochloride]: the IC50 under setting [1] worked out at 560 nM.
Consider `CCOc1cc(-c2nc(-c3ccc(O)c(C(=O)O)c3)cs2)ccc1OC` [compound 92, 4-(3-Carboxy-4-hydroxyphenyl)-2-(3-ethoxy-4-methoxyphenyl)thiazole], for which, under setting [3], the IC50 amounted to 20 nM.
In turn, `CCOc1ccc(-c2nc(-c3ccc(C(=O)O)s3)cs2)cc1OCC` [compound 129, 2-(3,4-Diethoxyphenyl)-4-(2-carboxy-5-thienyl)-thiazole] had an IC50 under setting [1] of 82 nM.
Turning to `CCOc1ccc(-c2nc(-c3ccc(O)c(CO)c3)cs2)cc1OCC` [compound 133, 2-(3,4-Diethoxyphenyl)-4-(4-hydroxy-3-hydroxymethylphenyl)thiazole], the IC50 under setting [1] stood at 9.2 nM.
As for `CCOc1ccc(-c2nc(-c3ccc(O)c(C(=O)O)c3)cs2)cc1OC` [compound 88, 4-(3-Carboxy-4-hydroxyphenyl)-2-(3-methoxy-4-ethoxyphenyl)thiazole], the half-inhibitory concentration (IC50) is, setting by setting: under setting [3], 100 nM; under setting [1], 100 nM.
Consider `CCOc1ccc(-c2nc(-c3ccc(O)c(C(=O)OC)c3)cs2)cc1OC` [compound 86, 4-(3-Methoxycarbonyl-4-hydroxyphenyl)-2-(3-methoxy-4-ethoxyphenyl)thiazole], for which the IC50 under setting [1] is 33 nM.
For `C=CCc1cc(C(=O)O)cc(-c2csc(-c3ccc(OCC)c(OCC)c3)n2)c1O` [compound 103, 4-(3-Carboxy-5-allyl-6-hydroxyphenyl)-2-(3,4-diethoxy-phenyl)thiazole], the 50% inhibitory concentration (IC50) under setting [1] came to 94 nM.
For `CCCCOc1ccc(-c2nc(-c3ccc(O)c(C(=O)O)c3)cs2)cc1OCCCC` [compound 111, 4-(3-Carboxy-4-hydroxyphenyl)-2-(3,4-dibutoxyphenyl)thiazole, reference compound], the concentration for half-maximal inhibition (IC50) under setting [3] is 8300 nM.
`CCOc1ccc(-c2nc(-c3cc(O)cc(C(=O)O)c3)cs2)cc1OCC` [compound 110, 4-(3-Carboxy-5-hydroxyphenyl)-2-(3,4-diethoxyphenyl)thiazole, reference compound] returned an IC50 under setting [3] of 660 nM.
For `Fc1ccc(-c2csc(-c3cccnc3)n2)cc1.Fc1ccc(-c2csc(-c3cccnc3)n2)cc1.Fc1ccc(-c2csc(-c3cccnc3)n2)cc1.[Cl][Fe][Cl]` [compound 56, 2-(3-Pyridyl)-4-(4-fluorophenyl)thiazole-⅓ FeCl2 salt], under setting [2], the IC50 was 1000 nM.
As to `COc1ccc(-c2nc(-c3ccc4[nH]c(=O)oc4c3)cs2)cc1OC` [compound 55, 2-(3,4-Dimethoxyphenyl)-4-(2-oxobenzoxazol-6-yl)thiazole], it took 70 nM to reach half-maximal inhibition under setting [1] (IC50).
On to `CCOc1ccc(-c2nc(-c3ccc(N)c(C(=O)O)c3)cs2)cc1OCC` [compound 96, 4-(3-Carboxy-4-aminophenyl)-2-(3,4-diethoxyphenyl)-thiazole], for which the IC50 under setting [1] was found to be 23 nM.
`CCCc1cc(-c2csc(-c3ccc(OCC)c(OCC)c3)n2)cc(C(=O)O)c1O` [compound 90] had an IC50 under setting [2] of 8 nM.
As to `CCOc1ccc(-c2nc(-c3cc(C)c(O)c(C(=O)O)c3)cs2)cc1OCC` [compound 85, 4-(3-Carboxy-4-hydroxy-5-methylphenyl)-2-(3,4-diethoxyphenyl)thiazole], under setting [1], 80 nM corresponded to half-maximal inhibition (IC50).
Regarding `CCOc1ccc(-c2nc(-c3ccc(O)c(CC)c3)cs2)cc1OCC` [compound 98, 4-(3-Ethyl-4-hydroxyphenyl)-2-(3,4-Diethoxyphenyl)thiazole], half-maximal inhibition under setting [1] (IC50) was put at 83 nM.
For `CCOc1ccc(-c2nc(-c3cc(C(=O)O)c(N)cc3O)cs2)cc1OCC` [compound 95, 4-(3-Carboxy-4-amino-6-hydroxyphenyl)-2-(3,4-diethoxyphenyl)thiazole], under setting [1], the IC50 is 8.7 nM.
With `CCOc1ccc(-c2nc(-c3cc(C(=O)O)ccc3O)cs2)cc1OCC` [compound 91, 4-(3-Carboxy-6-hydroxyphenyl)-2-(3,4-diethoxyphenyl)thiazole], the IC50 is, setting by setting: under setting [3], 23 nM; under setting [1], 23 nM.
Under setting [1], `CCCOc1ccc(-c2csc(-c3ccc(OCC)c(OCC)c3)n2)cc1C(=O)O` [compound 138, 2-(3,4-Diethoxyphenyl)-4-(3-carboxy-4-n-propoxyphenyl)thiazole] showed an IC50 of 140 nM.
Under setting [1], `CCOc1ccc(-c2nc(-c3ccc4c(c3)CCC(=O)N4)cs2)cc1OCC` [compound 59, 2-(3,4-Diethoxyphenyl)-4-(3,4-dihydrocarbostyril-6-yl)thiazole] had an IC50 of 80 nM.
The same measure, in the same setting: as for `CCOc1ccc(-c2nc(-c3cc(Br)c(O)c(C(=O)O)c3)cs2)cc1OCC` [compound 145, 2-(3,4-Diethoxyphenyl)-4-(3-carboxy-4-hydroxy-5-bromophenyl)thiazole], the figure is 110 nM.

(Values after patent USRE37556E1, “Superoxide radical inhibitor” (Otsuka Pharmaceutical Co., Ltd., priority 1990, dated 2002).)
